In patent publication US12275731B2, “Azaindole inhibitors of wild-type and mutant forms of LRRK2” (DANA-FARBER CANCER INSTITUTE, INC., priority 2018, dated 2025):

Experiments:
Assay in all cases: KinomeScan profiling
Format in all cases: binding
NDR2 = NDR2 (Homo sapiens, UniProt Q9Y2H1); conditions: NDR2, 1 μM; read-out: % control
Procedure, shortened: (§1)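 Luminescence (RLU) was converted to percent of control, with DMSO set as 100% and a reference compound as 0%. Test compounds were run at 1 μM against 468 kinases. Kinases showing below 35% of control were scored as bound.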

PDGFRB = PDGFRB (Homo sapiens, UniProt P09619); conditions: read-out: % control
Procedure, shortened: (§2)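 First, compounds in DMSO are added at 1 μM to each of 468 kinase assays. Next, RLU signals are normalised between positive control (0%) and DMSO (100%). Finally, kinases under 35% are flagged active.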

PAK7 = PAK7 (Homo sapiens, UniProt Q9P286); conditions: PAK7, 1 μM; read-out: % control
Procedure, shortened: as §2

CAMK2D = CAMK2D (Homo sapiens, UniProt Q13557); conditions: read-out: % control
Procedure, shortened: as §1

DDR2 = biological target: T1, DDR2 (Homo sapiens, UniProt Q16832); conditions: DDR2, 1 μM; read-out: % control
T1 sequence (Q16832 22-855): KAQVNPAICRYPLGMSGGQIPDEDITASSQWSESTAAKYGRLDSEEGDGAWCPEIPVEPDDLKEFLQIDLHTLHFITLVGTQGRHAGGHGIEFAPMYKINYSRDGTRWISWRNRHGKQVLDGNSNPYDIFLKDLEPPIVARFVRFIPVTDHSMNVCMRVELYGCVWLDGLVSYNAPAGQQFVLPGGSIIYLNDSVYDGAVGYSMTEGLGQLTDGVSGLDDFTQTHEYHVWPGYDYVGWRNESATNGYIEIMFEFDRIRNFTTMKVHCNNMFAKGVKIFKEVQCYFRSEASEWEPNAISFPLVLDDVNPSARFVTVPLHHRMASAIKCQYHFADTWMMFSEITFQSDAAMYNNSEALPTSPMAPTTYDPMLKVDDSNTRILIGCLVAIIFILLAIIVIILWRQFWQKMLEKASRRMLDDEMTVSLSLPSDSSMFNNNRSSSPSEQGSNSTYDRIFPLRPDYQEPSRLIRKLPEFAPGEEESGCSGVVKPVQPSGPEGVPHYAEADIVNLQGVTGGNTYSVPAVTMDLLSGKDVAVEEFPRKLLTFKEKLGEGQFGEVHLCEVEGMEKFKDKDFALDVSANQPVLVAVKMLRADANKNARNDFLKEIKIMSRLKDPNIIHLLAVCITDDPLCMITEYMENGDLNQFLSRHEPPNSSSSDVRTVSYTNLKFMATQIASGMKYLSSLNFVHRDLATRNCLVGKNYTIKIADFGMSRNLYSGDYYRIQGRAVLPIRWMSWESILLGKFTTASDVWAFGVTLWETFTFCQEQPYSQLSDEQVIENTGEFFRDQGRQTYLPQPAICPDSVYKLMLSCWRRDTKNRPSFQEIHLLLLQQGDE
Procedure, shortened: as §1

[1] = biological target: T2, ABL1(F317L)-nonphosphorylated (Homo sapiens, UniProt P00519, F317L); conditions: read-out: % control
T2 construct: purchased KinomeScan®
Procedure, shortened: as §1

MTOR = MTOR (Homo sapiens, UniProt P42345); conditions: read-out: % control
Procedure, shortened: as §1

YSK1 = YSK1 (Homo sapiens, UniProt O00506); conditions: YSK1, 1 μM; read-out: % control
Procedure, shortened: as §1

MAP4K5 = MAP4K5 (Homo sapiens, UniProt Q9Y4K4); conditions: MAP4K5, 1 μM; read-out: % control
Procedure, shortened: as §1

BUB1 = BUB1 (Homo sapiens, UniProt O43683); conditions: BUB1, 1 μM; read-out: % control
Procedure, shortened: as §1

ERK8 = biological target: T3, ERK8 (Homo sapiens, UniProt Q8TD08); conditions: ERK8, 1 μM; read-out: % control
T3 sequence (Q8TD08 1-544): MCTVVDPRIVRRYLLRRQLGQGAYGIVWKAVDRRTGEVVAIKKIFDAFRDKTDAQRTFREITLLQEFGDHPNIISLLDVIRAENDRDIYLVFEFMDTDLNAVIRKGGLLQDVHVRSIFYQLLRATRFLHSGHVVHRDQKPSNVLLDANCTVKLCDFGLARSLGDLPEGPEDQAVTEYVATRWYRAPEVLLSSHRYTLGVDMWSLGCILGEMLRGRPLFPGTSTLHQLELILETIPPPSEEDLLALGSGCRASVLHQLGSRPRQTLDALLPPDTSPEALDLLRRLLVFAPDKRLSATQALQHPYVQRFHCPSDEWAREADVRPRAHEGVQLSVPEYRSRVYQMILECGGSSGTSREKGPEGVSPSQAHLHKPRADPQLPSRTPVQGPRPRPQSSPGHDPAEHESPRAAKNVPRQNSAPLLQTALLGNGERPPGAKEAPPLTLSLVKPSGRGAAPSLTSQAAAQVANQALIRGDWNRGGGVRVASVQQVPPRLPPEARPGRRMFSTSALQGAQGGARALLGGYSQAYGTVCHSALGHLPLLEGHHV
Procedure, shortened: as §1

T2 sequence (P00519 whole entry F317L): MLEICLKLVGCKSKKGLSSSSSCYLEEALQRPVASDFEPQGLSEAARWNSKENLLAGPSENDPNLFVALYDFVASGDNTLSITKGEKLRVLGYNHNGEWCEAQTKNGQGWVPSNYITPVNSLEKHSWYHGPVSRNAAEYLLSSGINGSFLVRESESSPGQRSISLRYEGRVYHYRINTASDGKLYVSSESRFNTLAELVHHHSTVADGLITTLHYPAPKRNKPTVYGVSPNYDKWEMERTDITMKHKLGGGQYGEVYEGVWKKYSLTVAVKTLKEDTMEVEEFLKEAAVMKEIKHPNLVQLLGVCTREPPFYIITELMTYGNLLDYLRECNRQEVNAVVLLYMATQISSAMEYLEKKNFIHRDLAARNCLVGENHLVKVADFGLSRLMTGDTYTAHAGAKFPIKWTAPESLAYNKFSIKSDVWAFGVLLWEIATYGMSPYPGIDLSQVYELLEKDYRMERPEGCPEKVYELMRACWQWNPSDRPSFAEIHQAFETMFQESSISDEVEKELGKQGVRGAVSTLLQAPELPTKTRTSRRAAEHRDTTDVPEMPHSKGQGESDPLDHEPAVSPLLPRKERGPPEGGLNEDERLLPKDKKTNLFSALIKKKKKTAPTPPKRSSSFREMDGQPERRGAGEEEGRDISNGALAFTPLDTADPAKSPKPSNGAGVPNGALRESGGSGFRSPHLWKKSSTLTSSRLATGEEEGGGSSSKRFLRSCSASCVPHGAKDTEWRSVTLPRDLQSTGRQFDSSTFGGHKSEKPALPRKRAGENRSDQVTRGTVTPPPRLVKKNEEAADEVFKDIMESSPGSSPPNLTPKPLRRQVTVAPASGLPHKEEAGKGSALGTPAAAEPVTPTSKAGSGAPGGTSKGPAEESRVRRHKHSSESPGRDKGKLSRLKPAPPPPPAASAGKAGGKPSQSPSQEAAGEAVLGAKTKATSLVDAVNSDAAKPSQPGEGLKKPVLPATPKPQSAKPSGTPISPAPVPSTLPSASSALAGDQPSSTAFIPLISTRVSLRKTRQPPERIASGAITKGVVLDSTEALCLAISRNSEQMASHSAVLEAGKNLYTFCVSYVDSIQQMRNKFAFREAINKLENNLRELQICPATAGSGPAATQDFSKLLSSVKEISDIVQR
Sequence of YSK1 (O00506 whole entry): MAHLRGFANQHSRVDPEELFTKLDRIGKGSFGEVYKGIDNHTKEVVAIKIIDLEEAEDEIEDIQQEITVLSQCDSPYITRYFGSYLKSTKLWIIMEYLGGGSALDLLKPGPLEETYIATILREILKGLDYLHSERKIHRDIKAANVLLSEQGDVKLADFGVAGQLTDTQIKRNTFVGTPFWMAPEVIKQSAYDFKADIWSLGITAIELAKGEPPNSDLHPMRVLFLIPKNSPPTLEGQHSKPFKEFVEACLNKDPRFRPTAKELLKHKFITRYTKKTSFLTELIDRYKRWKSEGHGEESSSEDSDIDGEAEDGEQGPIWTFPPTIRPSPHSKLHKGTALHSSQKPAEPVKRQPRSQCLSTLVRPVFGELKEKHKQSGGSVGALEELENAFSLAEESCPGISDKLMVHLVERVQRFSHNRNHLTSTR
Sequence of PAK7 (Q9P286 whole entry): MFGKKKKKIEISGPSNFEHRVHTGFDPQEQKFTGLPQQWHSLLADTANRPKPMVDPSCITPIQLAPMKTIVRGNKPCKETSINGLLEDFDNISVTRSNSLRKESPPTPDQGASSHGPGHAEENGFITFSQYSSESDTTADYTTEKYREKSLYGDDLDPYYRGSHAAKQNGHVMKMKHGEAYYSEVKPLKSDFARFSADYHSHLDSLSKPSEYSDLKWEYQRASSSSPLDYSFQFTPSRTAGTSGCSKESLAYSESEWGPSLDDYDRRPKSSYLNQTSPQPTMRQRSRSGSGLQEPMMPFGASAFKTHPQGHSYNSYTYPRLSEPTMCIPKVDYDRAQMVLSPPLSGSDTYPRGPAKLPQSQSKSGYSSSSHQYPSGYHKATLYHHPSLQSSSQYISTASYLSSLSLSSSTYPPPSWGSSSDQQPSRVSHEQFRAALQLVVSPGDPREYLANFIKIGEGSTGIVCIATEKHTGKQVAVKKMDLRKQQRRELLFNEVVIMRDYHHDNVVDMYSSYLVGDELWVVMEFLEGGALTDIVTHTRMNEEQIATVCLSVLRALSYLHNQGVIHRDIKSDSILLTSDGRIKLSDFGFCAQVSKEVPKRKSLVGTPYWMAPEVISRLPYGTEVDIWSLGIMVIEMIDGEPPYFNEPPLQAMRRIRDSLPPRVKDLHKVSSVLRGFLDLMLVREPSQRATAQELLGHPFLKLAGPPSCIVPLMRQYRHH
Sequence of PDGFRB (P09619 33-1106): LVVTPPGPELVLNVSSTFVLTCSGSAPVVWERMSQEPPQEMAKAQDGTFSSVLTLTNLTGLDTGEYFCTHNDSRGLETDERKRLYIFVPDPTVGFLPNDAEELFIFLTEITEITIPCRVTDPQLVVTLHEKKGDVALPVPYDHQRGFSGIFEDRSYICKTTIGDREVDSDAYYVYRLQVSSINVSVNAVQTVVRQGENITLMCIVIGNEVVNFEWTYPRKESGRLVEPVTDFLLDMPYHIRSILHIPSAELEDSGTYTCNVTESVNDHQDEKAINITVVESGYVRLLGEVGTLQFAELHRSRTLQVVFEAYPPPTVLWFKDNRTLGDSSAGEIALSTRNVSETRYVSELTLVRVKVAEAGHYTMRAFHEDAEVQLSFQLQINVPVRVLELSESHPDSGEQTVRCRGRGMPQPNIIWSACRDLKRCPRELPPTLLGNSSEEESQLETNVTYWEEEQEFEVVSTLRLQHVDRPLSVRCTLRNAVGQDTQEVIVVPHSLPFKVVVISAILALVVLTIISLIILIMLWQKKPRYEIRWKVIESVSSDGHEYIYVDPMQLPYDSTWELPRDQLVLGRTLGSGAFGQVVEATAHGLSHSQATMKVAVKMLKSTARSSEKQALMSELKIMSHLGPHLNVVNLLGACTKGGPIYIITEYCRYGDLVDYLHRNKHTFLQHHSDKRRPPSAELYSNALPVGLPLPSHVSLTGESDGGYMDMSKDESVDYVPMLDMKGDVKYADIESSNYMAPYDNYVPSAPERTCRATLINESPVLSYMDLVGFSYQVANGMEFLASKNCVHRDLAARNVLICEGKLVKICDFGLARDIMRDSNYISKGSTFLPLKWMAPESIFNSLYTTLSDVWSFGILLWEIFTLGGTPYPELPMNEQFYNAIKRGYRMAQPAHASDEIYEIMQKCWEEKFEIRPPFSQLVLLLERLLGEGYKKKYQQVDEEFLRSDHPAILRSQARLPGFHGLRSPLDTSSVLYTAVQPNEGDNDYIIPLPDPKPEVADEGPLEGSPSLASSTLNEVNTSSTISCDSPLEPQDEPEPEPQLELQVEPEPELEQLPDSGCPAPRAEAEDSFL
Sequence of CAMK2D (Q13557 whole entry): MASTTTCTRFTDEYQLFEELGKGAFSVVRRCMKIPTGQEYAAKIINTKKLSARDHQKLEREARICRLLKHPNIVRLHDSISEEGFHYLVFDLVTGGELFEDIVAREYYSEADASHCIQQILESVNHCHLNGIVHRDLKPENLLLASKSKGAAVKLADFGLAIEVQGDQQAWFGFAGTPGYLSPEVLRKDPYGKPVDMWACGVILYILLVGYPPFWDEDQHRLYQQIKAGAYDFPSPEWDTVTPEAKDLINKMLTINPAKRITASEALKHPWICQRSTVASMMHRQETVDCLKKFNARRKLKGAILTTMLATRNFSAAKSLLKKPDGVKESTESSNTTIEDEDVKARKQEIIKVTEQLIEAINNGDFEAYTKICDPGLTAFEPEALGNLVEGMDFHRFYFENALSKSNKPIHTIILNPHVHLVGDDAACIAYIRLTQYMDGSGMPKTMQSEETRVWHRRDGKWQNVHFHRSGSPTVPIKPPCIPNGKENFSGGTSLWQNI
Sequence of BUB1 (O43683 whole entry): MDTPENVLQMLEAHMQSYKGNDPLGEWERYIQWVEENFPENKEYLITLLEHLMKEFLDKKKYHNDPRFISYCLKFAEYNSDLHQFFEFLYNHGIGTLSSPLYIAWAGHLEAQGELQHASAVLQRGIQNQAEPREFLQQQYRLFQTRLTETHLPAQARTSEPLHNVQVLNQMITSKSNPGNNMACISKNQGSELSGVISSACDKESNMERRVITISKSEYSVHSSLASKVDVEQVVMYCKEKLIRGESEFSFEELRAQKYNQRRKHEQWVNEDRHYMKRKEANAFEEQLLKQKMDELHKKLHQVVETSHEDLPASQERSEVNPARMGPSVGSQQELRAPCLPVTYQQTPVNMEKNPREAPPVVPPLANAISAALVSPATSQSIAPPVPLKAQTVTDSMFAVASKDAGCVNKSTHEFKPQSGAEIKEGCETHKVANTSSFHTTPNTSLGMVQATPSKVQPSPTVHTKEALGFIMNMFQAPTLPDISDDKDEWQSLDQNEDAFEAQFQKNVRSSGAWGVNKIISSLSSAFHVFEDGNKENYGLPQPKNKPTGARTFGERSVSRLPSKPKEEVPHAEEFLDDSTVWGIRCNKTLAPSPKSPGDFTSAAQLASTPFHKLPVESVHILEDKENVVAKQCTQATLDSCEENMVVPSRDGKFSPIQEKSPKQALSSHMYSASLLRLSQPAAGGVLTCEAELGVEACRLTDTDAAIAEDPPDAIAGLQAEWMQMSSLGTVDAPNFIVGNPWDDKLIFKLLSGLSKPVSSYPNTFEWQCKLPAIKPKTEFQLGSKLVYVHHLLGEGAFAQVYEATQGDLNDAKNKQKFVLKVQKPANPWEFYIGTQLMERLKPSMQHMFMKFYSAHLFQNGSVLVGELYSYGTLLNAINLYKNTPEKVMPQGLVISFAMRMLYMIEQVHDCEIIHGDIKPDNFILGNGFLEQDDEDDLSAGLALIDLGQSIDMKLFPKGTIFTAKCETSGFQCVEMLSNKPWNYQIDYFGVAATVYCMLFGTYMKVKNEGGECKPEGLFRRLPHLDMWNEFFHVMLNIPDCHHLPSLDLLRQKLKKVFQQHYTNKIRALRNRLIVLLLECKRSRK

Compound | remaining binding at 1 µM (NDR2) | remaining binding at 1 µM (PDGFRB) | remaining binding at 1 µM (PAK7) | remaining binding at 1 µM (CAMK2D) | remaining binding at 1 µM (DDR2) | remaining binding at 1 µM [1] | remaining binding at 1 µM (MTOR) | remaining binding at 1 µM (YSK1) | remaining binding at 1 µM (MAP4K5) | remaining binding at 1 µM (BUB1) | remaining binding at 1 µM (ERK8)
CNc1c(-c2cnn([C@H]3CCN(C(C)=O)C[C@@H]3F)c2)cnc2[nH]cc(Cl)c12 [Compound 77, 1-((3S,4S)-4-(4-(3-chloro-4-(methylamino)-1H-pyrrolo[2,3-b]pyridin-5-yl)-1H-pyrazol-1-yl)-3-fluoropiperidin-1-yl)ethan-1-one] | 21% | 20% | 100% | 100% | 86% | 95% | 60% | 84% | 77% | 80% | 92%
CNc1c(-c2ccc(C(=O)N3CCC(N4CCOCC4)CC3)cc2)cnc2[nH]cc(Cl)c12 [Compound 96, (4-(3-chloro-4-(methylamino)-1H-pyrrolo[2,3-b]pyridin-5-yl)phenyl)(4-morpholinopiperidin-1-yl)methanone] | 19% | 21% | 41% | 100% | 79% | 100% | 78% | 97% | 39% | 86% | 100%
O=C(c1ccc(-c2cnc3[nH]cc(Cl)c3c2NC2CCCC2)cc1)N1CCC(N2CCOCC2)CC1 [Compound 101, (4-(3-chloro-4-(cyclopentylamino)-1H-pyrrolo[2,3-b]pyridin-5-yl)phenyl)(4-morpholinopiperidin-1-yl)methanone] | 63% | 83% | 95% | 93% | 100% | 10% | 95% | 100% | 88% | 100% | 91%
